Reference: article PMC11288027, “Exploring novel microbial metabolites and drugs for inhibiting Clostridioides difficile” (mSphere, 2024)
Converted amounts (≈) assume the structure as drawn. “And” between values parts separate entries of the source, which are not always exact repeats. Equal values may be shown once. Where a name gives a salt, the structure may show the parent alone. Read-outs that look alike come from different tables or passages of the source.

Assays:
[1] = tested on: C. difficile clinical isolates; assay: MIC against a panel of 20 C. difficile clinical isolates (broth microdilution); format: cell-based, Clostridioides difficile; conditions: Clostridioides difficile
B. fragilis = assay: MIC against human gut microbiota; format: cell-based, Bacteroides fragilis; conditions: for MIC: Bacteroides fragilis, read-out: minimum inhibitory concentration (MIC)
B. dorei = assay: MIC against human gut microbiota; format: cell-based, Bacteroides dorei; conditions: Phocaeicola dorei, read-out: minimum inhibitory concentration (MIC)
Bif. breve = assay: MIC against human gut microbiota; format: cell-based, Bifidobacterium breve; conditions: Bifidobacterium breve
Bif. angulatum = assay: MIC against human gut microbiota; format: cell-based, Bifidobacterium angulatum; conditions: Bifidobacterium angulatum, read-out: minimum inhibitory concentration (MIC)
Bif. adolescentis = assay: MIC against human gut microbiota; format: cell-based, Bifidobacterium adolescentis; conditions: Bifidobacterium adolescentis, read-out: minimum inhibitory concentration (MIC)
Bif. longum = assay: MIC against human gut microbiota; format: cell-based, Bifidobacterium longum; conditions: Bifidobacterium longum
E. faecium = assay: MIC against human gut microbiota; format: cell-based, Enterococcus faecium; conditions: Enterococcus faecium, read-out: minimum inhibitory concentration (MIC)
E. fecalis = assay: MIC against human gut microbiota; format: cell-based, Enterococcus faecalis; conditions: Enterococcus faecalis, read-out: minimum inhibitory concentration (MIC)
L. casei = assay: MIC against human gut microbiota; format: cell-based; conditions: Lacticaseibacillus casei
L. brevis = assay: MIC against human gut microbiota; format: cell-based, Lactobacillus brevis; conditions: Levilactobacillus brevis
L. rhamanosus = assay: MIC against human gut microbiota; format: cell-based, Lactobacillus rhamnoosus; conditions: Lactobacillus
[2] = tested on: Staphylococcus epidermidis; design: method as in PMID 26414088; conditions: cited from earlier work
S. aureus = tested on: S. aureus; design: method as in PMID 26414088; conditions: cited from earlier work
Acinetobacter baumannii = tested on: Acinetobacter baumannii; design: method as in PMID 26414088; conditions: cited from earlier work
mice = conditions: administered orally; cited from earlier work
[3] = tested on: C. difficile ATCC BAA-1870; assay: Time-kill assay at 5 × MIC; conditions: C. difficile ATCC BAA-1870, ~10^6 CFU/mL, up to 24 h
[4] = tested on: C. difficile ATCC BAA-1870; assay: MIC of active hits by broth microdilution; conditions: C. difficile ATCC BAA-1870, 48 h anaerobic; for MIC: Clostridioides difficile, ATCCBAA1870, 48 h
[5] = tested on: embryo development in mice; design: method as in PMID 19079959; conditions: cited from earlier work
[6] = B. fragilis HM- 718, BHIS broth, anaerobic

## Oc1c(Br)cc(Br)c2cccnc12 [Broxyquinoline]
[1]; 48 h, concentration that inhibited 50% of the 20 C. difficile clinical isolates, read-out: MIC50
  MIC50: 0.125 µg/mL (≈ 0.413 µM)
[1]; ATCC630, C. difficile ATCC 630, read-out: minimum inhibitory concentration (MIC)
  MIC: 1 µg/mL (≈ 3.3 µM)
[1]; ATCC43255, C. difficile ATCC 43255, read-out: minimum inhibitory concentration (MIC)
  MIC: 0.25 µg/mL (≈ 0.825 µM)
[1]; ATCCBAA1870, C. difficile ATCC BAA-1870 (Ribotype-027), purchased compounds, panel test, read-out: minimum inhibitory concentration (MIC)
  MIC: 0.125 µg/mL (≈ 0.413 µM)
[1]; C. difficile CD-1 (Ribotype-027), read-out: minimum inhibitory concentration (MIC)
  MIC: 0.25 µg/mL (≈ 0.825 µM)
[1]; C. difficile CD-6 (Ribotype-027), read-out: minimum inhibitory concentration (MIC)
  MIC: 0.25 µg/mL (≈ 0.825 µM)
[1]; C. difficile CD-10(Ribotype-027), read-out: minimum inhibitory concentration (MIC)
  MIC: 0.125 µg/mL (≈ 0.413 µM)
[1]; C. difficile CD-12, read-out: minimum inhibitory concentration (MIC)
  MIC: 0.125 µg/mL (≈ 0.413 µM)
[1]; C. difficile CD-13, read-out: minimum inhibitory concentration (MIC)
  MIC: 0.03 µg/mL (≈ 0.099 µM)
[1]; C. difficile CD-15, read-out: minimum inhibitory concentration (MIC)
  MIC: 0.25 µg/mL (≈ 0.825 µM)
[1]; C. difficile CD-22, read-out: minimum inhibitory concentration (MIC)
  MIC: 0.125 µg/mL (≈ 0.413 µM)
[1]; C. difficile CD-23, read-out: minimum inhibitory concentration (MIC)
  MIC: 0.125 µg/mL (≈ 0.413 µM)
[1]; C. difficile CD-24, read-out: minimum inhibitory concentration (MIC)
  MIC: 0.015 µg/mL (≈ 0.0495 µM)
[1]; C. difficile CD-26 (Ribotype-027), read-out: minimum inhibitory concentration (MIC)
  MIC: 0.125 µg/mL (≈ 0.413 µM)
[1]; C. difficile CD-28, read-out: minimum inhibitory concentration (MIC)
  MIC: 0.06 µg/mL (≈ 0.198 µM)
[1]; C. difficile CD-29 (Ribotype-027), read-out: minimum inhibitory concentration (MIC)
  MIC: 0.06 µg/mL (≈ 0.198 µM)
[1]; C. difficile CD-30, read-out: minimum inhibitory concentration (MIC)
  MIC: 0.25 µg/mL (≈ 0.825 µM)
[1]; C. difficile NR-49302, read-out: minimum inhibitory concentration (MIC)
  MIC: 0.06 µg/mL (≈ 0.198 µM)
[1]; C. difficile NR-49304, read-out: minimum inhibitory concentration (MIC)
  MIC: 0.03 µg/mL (≈ 0.099 µM)
[1]; C. difficile NR-49308, read-out: minimum inhibitory concentration (MIC)
  MIC: 0.06 µg/mL (≈ 0.198 µM)
[1]; C. difficile NR-49319, read-out: minimum inhibitory concentration (MIC)
  MIC: 0.25 µg/mL (≈ 0.825 µM)
[1]; concentration that inhibited 50% of the 20 C. difficile clinical isolates, read-out: MIC50
  MIC50: 0.125 µg/mL (≈ 0.413 µM)
[1]; concentration that inhibited 90% of the 20 C. difficile clinical isolates, read-out: MIC90
  MIC90: 0.25 µg/mL (≈ 0.825 µM)
B. fragilis; B. fragilis HM- 709, BHIS broth, anaerobic
  MIC: 8 µg/mL (≈ 26.4 µM)
B. fragilis; [6]
  MIC: 16 µg/mL (≈ 52.8 µM)
B. dorei; B. dorei HM- 719, BHIS broth, anaerobic
  MIC: 8 µg/mL (≈ 26.4 µM)
Bif. breve; ATCC15700, Bif. breve ATCC 15700, BHIS broth, anaerobic, read-out: minimum inhibitory concentration (MIC)
  MIC: > 256 µg/mL
Bif. angulatum; Bif. angulatum HM- 1189, BHIS broth, anaerobic
  MIC: 8 µg/mL (≈ 26.4 µM)
Bif. adolescentis; Bif. adolescentis HM- 633, BHIS broth, anaerobic
  MIC: 64 µg/mL (≈ 211 µM)
Bif. longum; Bif. longum HM- 845, BHIS broth, anaerobic, read-out: minimum inhibitory concentration (MIC)
  MIC: > 256 µg/mL
Bif. longum; Bif. longum HM- 846, BHIS broth, anaerobic, read-out: minimum inhibitory concentration (MIC)
  MIC: 128 µg/mL (≈ 423 µM)
Bif. longum; Bif. longum HM- 847, BHIS broth, anaerobic, read-out: minimum inhibitory concentration (MIC)
  MIC: 32 µg/mL (≈ 106 µM)
Bif. longum; Bif. longum HM- 848, BHIS broth, anaerobic, read-out: minimum inhibitory concentration (MIC)
  MIC: 64 µg/mL (≈ 211 µM)
E. faecium; E. faecium HM-202, TSB, aerobic
  MIC: 32 µg/mL (≈ 106 µM)
E. fecalis; E. fecalis HM-970, TSB, aerobic
  MIC: 16 µg/mL (≈ 52.8 µM)
L. casei; ATCC334, L. casei ATCC 334, MRS broth, 5% CO2, read-out: minimum inhibitory concentration (MIC)
  MIC: 32 µg/mL (≈ 106 µM)
L. brevis; ATCC14864, L. brevis ATCC-14864, MRS broth, 5% CO2, read-out: minimum inhibitory concentration (MIC)
  MIC: 64 µg/mL (≈ 211 µM)
L. rhamanosus; ATCC53103, L. rhamanosus ATCC-53103, MRS broth, 5% CO2, read-out: minimum inhibitory concentration (MIC)
  MIC: > 256 µg/mL
[2]
  MIC: 12.5 µM and 4 µg/mL
S. aureus
  MIC: 4 µg/mL (≈ 13.2 µM)
Acinetobacter baumannii
  MIC: 12.5 µM and 4 µg/mL
mice
  LD50: 7400 mg/kg
[3]
  time to eliminate / clear C. difficile: 6 h
[4]
  MIC (μM): 4 µM
  MIC: 1.21 µg/mL

## C[C@H](CCC(=O)O)C[C@H](C)C[C@H](C)C(=O)/C=C(\O)[C@H](C)C[C@H](C)C/C=C/[C@@H](C)[C@@H](O)[C@@H](C)[C@@H](O)C[C@@H]1CC[C@@](C)([C@H]2CC[C@@](C)([C@@H](C)O)O2)O1 [Ionomycin (calcium salt)]
[1]
  MIC50: 1 µg/mL
  MIC90: 2 µg/mL
[1]; 48 h
  MIC50: 1 µg/mL
[1]; ATCC630, read-out: minimum inhibitory concentration (MIC)
  MIC: 0.5 µg/mL
[1]; ATCC43255, read-out: minimum inhibitory concentration (MIC)
  MIC: 1 µg/mL
[1]; ATCCBAA1870, read-out: minimum inhibitory concentration (MIC)
  MIC: 1 µg/mL
B. fragilis; [6]
  minimum inhibitory concentration (MIC): >256 µg/mL
B. fragilis
  MIC: > 256 µg/mL
B. dorei
  MIC: > 256 µg/mL
Bif. breve; ATCC15700, read-out: minimum inhibitory concentration (MIC)
  MIC: > 256 µg/mL
Bif. angulatum
  MIC: 64 µg/mL
Bif. adolescentis
  MIC: 16 µg/mL
Bif. longum; read-out: minimum inhibitory concentration (MIC), Bif. longum HM- 845, BHIS broth, anaerobic
  MIC: > 256 µg/mL
Bif. longum; read-out: minimum inhibitory concentration (MIC), Bif. longum HM- 846, BHIS broth, anaerobic
  MIC: 64 µg/mL
Bif. longum; read-out: minimum inhibitory concentration (MIC), Bif. longum HM- 847, BHIS broth, anaerobic
  MIC: 128 µg/mL
Bif. longum; read-out: minimum inhibitory concentration (MIC), Bif. longum HM- 848, BHIS broth, anaerobic
  MIC: 256 µg/mL
E. faecium
  MIC: 32 µg/mL
E. fecalis
  MIC: 16 µg/mL
L. casei; ATCC334, read-out: minimum inhibitory concentration (MIC)
  MIC: 32 µg/mL
L. brevis; ATCC14864, read-out: minimum inhibitory concentration (MIC)
  MIC: ≥ 256 µg/mL
L. rhamanosus; ATCC53103, read-out: minimum inhibitory concentration (MIC)
  MIC: > 256 µg/mL
[5]
  toxicity on embryo development: no toxicity
[3]
  time to bactericidal effect: 8 h
  time to eliminate / clear C. difficile: 12 h
[4]
  MIC (μM): 4 µM
  MIC: 2.99 µg/mL
